Experimental findings from patent publication US6875768B1, “Phthalamide derivatives, intermediates in the production thereof, and agricultural/horticultural insecticides and method for using the same” (Nihon Nohyako Co., Ltd., priority 1999, dated 2005) are described below.

Structures are written as SMILES.

Data set [1] relates to diamond back moth (Plutella xylostella). The data set is classed as in vivo. To be noted: 1,000 ppm; Chinese cabbage seedling with eggs immersed about 30 seconds; counted six days after the immersion; 25° C. From the text:
Insecticidal effect on diamond back moth (Plutella xylostella)
Adult diamond back moths were released and allowed to oviposit on a Chinese cabbage seedling. […] Six days after the immersion, the hatched insects were counted. […] [formula] Criterion • A - - - Mortality 100% • B - - - Mortality 99-90% • C - - - Mortality 89-80% • D - - - Mortality 79-50%

For data set [2], the system named is Common cutworm (Spodoptera litura). It is filed as in vivo. To be noted: 500 ppm; cabbage leaf immersed about 30 seconds; second-instar larvae; eight days after the inoculation; 25° C. From the text:
Insecticidal Effect on Common cutworm (Spodoptera litura)

In the case of `C[S+]([O-])CC(C)(C)NC(=O)c1c(I)cccc1C(=O)Nc1ccc(C(F)(C(F)(F)F)C(F)(F)F)nc1Cl` (centres unmarked) [Q27-235], the “insecticidal effect (activity ranking by mortality)” value (shortened to “insecticidal effect”) in data set [1] and in data set [2] was “B or higher” throughout.

In the case of `CC(C)(CS(C)(=O)=O)NC(=O)c1c(I)cccc1C(=O)Nc1ccc(C(F)(C(F)(F)F)C(F)(F)F)nc1Cl` [Q27-236], the “insecticidal effect” value in data set [1] and in data set [2] was “B or higher” throughout.

With `C[S+]([O-])CC(C)(C)NC(=O)c1c(I)cccc1C(=O)Nc1cccnc1C(F)(C(F)(F)F)C(F)(F)F` (centres unmarked) [Q27-238], the “insecticidal effect” value in data set [1] and in data set [2] was “B or higher” throughout.

As to `CC(C)(CS(C)(=O)=O)NC(=O)c1c(I)cccc1C(=O)Nc1cccnc1C(F)(C(F)(F)F)C(F)(F)F` [Q27-239], the “insecticidal effect” value in data set [1] and in data set [2] was “B or higher” throughout.

As to `CSCC(C)(C)NC(=O)c1c(I)cccc1C(=O)Nc1c(Cl)cc(C(F)(C(F)(F)F)C(F)(F)F)nc1Cl` [Q27-240], the “insecticidal effect” value in data set [1] and in data set [2] was “B or higher” throughout.

In the case of `COc1nc(C(F)(C(F)(F)F)C(F)(F)F)ccc1NC(=O)c1cccc(I)c1C(=O)NC(C)CSC` (centres unmarked) [Q27-241], the “insecticidal effect” value in data set [1] and in data set [2] was “B or higher” in each case.

On to `COc1nc(C(F)(C(F)(F)F)C(F)(F)F)ccc1NC(=O)c1cccc(I)c1C(=O)NC(C)C` [Q27-242], for which the “insecticidal effect” value in data set [1] and in data set [2] was “B or higher” each time.

On to `CSCC(C)(C)NC(=O)c1c(I)cccc1C(=O)Nc1ccc(C(F)(C(F)(F)F)C(F)(F)F)nc1C` [Q27-243], for which the “insecticidal effect” value in data set [1] and in data set [2] was “B or higher” each time.

`CSCC(C)(C)NC(=O)c1c(I)cccc1C(=O)Nc1ccc(C(F)(C(F)(F)F)C(F)(F)F)nc1SC` [Q27-245]: the “insecticidal effect” value in data set [1] and in data set [2] was “B or higher” in each case.

`CSc1nc(C(F)(C(F)(F)F)C(F)(F)F)ccc1NC(=O)c1cccc(I)c1C(=O)NC(C)C` [Q27-246]: the “insecticidal effect” value in data set [1] and in data set [2] was “B or higher” throughout.

For `CC(C)NC(=O)c1c(I)cccc1C(=O)Nc1ccc(C(F)(C(F)(F)F)C(F)(F)F)nc1[S+](C)[O-]` (centres unmarked) [Q27-247], the “insecticidal effect” value in data set [1] and in data set [2] was “B or higher” throughout.

As for `CC(C)(CS(C)(=O)=O)NC(=O)c1c(I)cccc1C(=O)Nc1ccc(OC(C(F)(F)F)C(F)(F)F)nc1Cl` [Q27-267], the “insecticidal effect” value in data set [1] and in data set [2] was “B or higher” each time.

For the molecule `COc1nc(OC(C(F)(F)F)C(F)(F)F)ccc1NC(=O)c1cccc(I)c1C(=O)NC(C)(C)CSC` [Q27-268], the “insecticidal effect” value in data set [1] and in data set [2] was “B or higher” each time.

On to `Cc1nc(OC(C(F)(F)F)C(F)(F)F)ccc1NC(=O)c1ccccc1C(=O)NC(C)(C)C[S+](C)[O-]` (centres unmarked) [Q27-289], for which the “insecticidal effect” value in data set [1] and in data set [2] was “B or higher” in each case.

As for `Cc1nc(OC(C(F)(F)F)C(F)(F)F)ccc1NC(=O)c1cccc(Cl)c1C(=O)NC(C)C` [Q27-297], the “insecticidal effect” value in data set [1] and in data set [2] was “B or higher” in each case.

For the molecule `Cc1nc(OC(C(F)(F)F)C(F)(F)F)ccc1NC(=O)c1cccc(Cl)c1C(=O)NC(C)(C)C` [Q27-298], the “insecticidal effect” value in data set [1] and in data set [2] was “B or higher” each time.

For `Cc1nc(OC(C(F)(F)F)C(F)(F)F)ccc1NC(=O)c1ccc(Cl)c(Cl)c1C(=O)NC(C)C` [Q27-332], the “insecticidal effect” value in data set [1] and in data set [2] was “B or higher” in each case.

On to `CSCC(C)NC(=O)c1c(C(=O)Nc2ccc(OC(C(F)(F)F)C(F)(F)F)nc2C)ccc(Cl)c1Cl` (centres unmarked) [Q27-334], for which the “insecticidal effect” value in data set [1] and in data set [2] was “B or higher” each time.

Regarding `Cc1nc(OC(C(F)(F)F)C(F)(F)F)ccc1NC(=O)c1ccc(Cl)c(Cl)c1C(=O)NC(C)C[S+](C)[O-]` (centres unmarked) [Q27-335], the “insecticidal effect” value in data set [1] and in data set [2] was “B or higher” in each case.

For `Cc1nc(OC(C(F)(F)F)C(F)(F)F)ccc1NC(=O)c1cccc([N+](=O)[O-])c1C(=O)NC(C)C` [Q27-347], the “insecticidal effect” value in data set [1] and in data set [2] was “B or higher” throughout.

On to `CSCC(C)(C)NC(=O)c1c(C(=O)Nc2ccc(OC(C(F)(F)F)C(F)(F)F)nc2C)cccc1[N+](=O)[O-]` [Q27-352], for which the “insecticidal effect” value in data set [1] and in data set [2] was “B or higher” throughout.

`Cc1nc(OC(C(F)(F)F)C(F)(F)F)ccc1NC(=O)c1cccc([N+](=O)[O-])c1C(=O)NC(C)(C)CS(C)(=O)=O` [Q27-353]: the “insecticidal effect” value in data set [1] and in data set [2] was “B or higher” in each case.

For the molecule `Cc1nc(OC(C(F)(F)F)C(F)(F)F)ccc1NC(=O)c1cccc(C(F)(F)F)c1C(=O)NC(C)C` [Q27-354], the “insecticidal effect” value in data set [1] and in data set [2] was “B or higher” throughout.

As to `Cc1nc(OC(C(F)(F)F)C(F)(F)F)ccc1NC(=O)c1cccc(C(F)(F)F)c1C(=O)NC(C)(C)C` [Q27-355], the “insecticidal effect” value in data set [1] and in data set [2] was “B or higher” in each case.

As to `CSCC(C)(C)NC(=O)c1c(C(=O)Nc2ccc(OC(C(F)(F)F)C(F)(F)F)nc2C)cccc1C(F)(F)F` [Q27-359], the “insecticidal effect” value in data set [1] and in data set [2] was “B or higher” throughout.

`Cc1nc(OC(C(F)(F)F)C(F)(F)F)ccc1NC(=O)c1cccc(C(F)(F)F)c1C(=O)NC(C)(C)C[S+](C)[O-]` (centres unmarked) [Q27-360]: the “insecticidal effect” value in data set [1] and in data set [2] was “B or higher” each time.

Turning to `Cc1nc(OC(F)(F)C(F)F)ccc1NC(=O)c1cccc(I)c1C(=O)NC(C)C` [Q27-378], the “insecticidal effect” value in data set [1] and in data set [2] was “B or higher” throughout.

Regarding `CSCC(C)(C)NC(=O)c1c(I)cccc1C(=O)Nc1ccc(OC(F)(F)C(F)F)nc1C` [Q27-384], the “insecticidal effect” value in data set [1] and in data set [2] was “B or higher” throughout.

On to `CC(C)NC(=O)c1c(I)cccc1C(=O)Nc1ccc(OC(F)(F)C(F)F)nc1Cl` [Q27-387], for which the “insecticidal effect” value in data set [1] and in data set [2] was “B or higher” in each case.

In the case of `CSCC(C)(C)NC(=O)c1c(I)cccc1C(=O)Nc1ccc(OC(F)(F)C(F)F)nc1Cl` [Q27-388], the “insecticidal effect” value in data set [1] and in data set [2] was “B or higher” throughout.

On to `Cc1nc(OC(F)(F)C(F)OC(F)(F)C(F)(F)C(F)(F)F)ccc1NC(=O)c1cccc(I)c1C(=O)NC(C)C` (centres unmarked) [Q27-397], for which the “insecticidal effect” value in data set [1] and in data set [2] was “B or higher” in each case.

Turning to `CSCC(C)NC(=O)c1c(I)cccc1C(=O)Nc1ccc(OC(F)(F)C(F)OC(F)(F)C(F)(F)C(F)(F)F)nc1Cl` (centres unmarked) [Q27-407], the “insecticidal effect” value in data set [1] and in data set [2] was “B or higher” throughout.

`Cc1nc(OCC(F)(F)C(F)(F)F)ccc1NC(=O)c1cccc(I)c1C(=O)NC(C)C` [Q27-413]: the “insecticidal effect” value in data set [1] and in data set [2] was “B or higher” in each case.

For the molecule `CSCC(C)NC(=O)c1c(I)cccc1C(=O)Nc1ccc(OCC(F)(F)C(F)(F)F)nc1C` (centres unmarked) [Q27-414], the “insecticidal effect” value in data set [1] and in data set [2] was “B or higher” throughout.

For the molecule `CSCC(C)(C)NC(=O)c1c(I)cccc1C(=O)Nc1ccc(NC(=O)C(F)(F)C(F)(F)F)nc1C` [Q27-439], the “insecticidal effect” value in data set [1] and in data set [2] was “B or higher” in each case.

`CSCC(C)(C)NC(=O)c1c(I)cccc1C(=O)Nc1cnc(C(F)(C(F)(F)F)C(F)(F)F)nc1C` [Q32-19]: the “insecticidal effect” value in data set [1] and in data set [2] was “B or higher” each time.

For `CCNC(=O)c1c(I)cccc1C(=O)Nc1cnc(C(F)(C(F)(F)F)C(F)(F)F)cn1` [Q34-46], the “insecticidal effect” value in data set [1] and in data set [2] was “B or higher” each time.
